The subject of data set [1] is ARPE-19 cells. The conditions noted are these: for protection against light-independent LF (A2E/ATRD) cytotoxicity, RPE survival: ARPE-19, inhibitor pretreatment, A2E/ATRD 24 h, no light; for protection against light-independent LF (A2E/ATRD) cytotoxicity, RPE survival / protection against lethal doses of A2E, viability: AlamarBlue; for cell death in ARPE19 cells exposed to the substance: light-independent; for protection against lethal doses of A2E, viability: ARPE19 pretreated 1 hr, then A2E 25 μM for 24 hrs in presence of drug. The protocol:
Cell Viability Assay. […] 1× AlamarBlue solution prepared in OptiMEM was used to replace the media supernatant and the plate's fluorescence was determined at 555 nm excitation/585 nm emission with a SpectraMax M (Molecular Devices, CA, USA), after 1 h. […] The exact timing of appearance of far-red (DRAQ7=plasma membrane leakage) and blue (NUC405=caspase 3 activation) fluorescence signals was critical to differentiate apoptosis and necrosis from secondary events, such as membrane damage and generalized proteolytic activation during the late phase of apoptosis and necrosis, respectively.
Real time monitoring of necrotic and apoptotic cell-death. Cell-death assay to study Lipofuscin's dark toxicity was performed. 90% confluent ARPE-19 or hfRPE were incubated overnight in serum free media supplemented with indicated LB concentration. Viability was assessed at 24 hrs by AlamarBlue®, or microscopy with NUC405/DRAQ7. Real time monitoring of necrotic (red) and apoptotic (blue) cell-death was performed by automated fluorescence microscopy. The exact timing of appearance of far-red (DRAQ7=plasma membrane leakage) and blue (NUC405=caspase 3 activation) fluorescence signals was critical to differentiate apoptosis and necrosis from secondary events, such as membrane damage and generalized proteolytic activation during the late phase of apoptosis and necrosis, respectively.
Chemical inhibitors. Chemical inhibitors used in this study are described in FIG. 12.

The subject of data set [2] is human MLKL. Briefly: Western blot of Ser358 phospho-MLKL, phosphorylation and polymerization of MLKL. The conditions noted are these: for induction of phosphorylation and polymerization of MLKL: absence of light; for effect on LF-induced phosphorylation and polymerization of MLKL: non-reducing conditions, cells with A2E/ATRD. In kind it is cell-based. The protocol: (§1) Immunoblotting. Total cell lysates were extracted using RIPA lysis buffer (50 mM TrisHCl, Ph 8.0, 150 mM NaCl, 1% NP40, 0.5% Sodium Deoxycholate, 0.1% SDS, protease-phosphatase inhibitor) after the incubation of the specific sample group in a 48 well plate. Sonication or syringing (20 times) was done followed by centrifugation at 12,000×g for 10 mins and the supernatant was collected and stored in −80° C. Proten concentration from homogenates were assessed by Pierce Rapid Gold BCA protein assay kit (ThermoFisher Scientific, cat.no. A53225). Then 30 μg of protein was analyzed by standard SDS-PAGE gel. Samples were mixed 4:1 (v:v) with Nupage loading buffer with or without 8% 0-mercaptoethanol and heated for 10 min at 72° C. SDS-PAGE was done using 4-12% Nupage gel and buffer (Life, NP0335BOX). Next, SDS-PAGE gel was transferred to nitrocellulose membrane (Whatman, PROTAN BA83) overnight at 20V. The following day, 5% milk in TBS was used for 2 h blocking the membrane and then primary antibody was added in TBST (TBS, 0.1% Tween-20) for overnight at 4° C. Next day membranes were washed and incubated for 2 hours at room temperature with HRP conjugated secondary antibody (cat #G21234, Invitrogen) at 1:10,000 dilution. After 3 more washed membranes were probed with enhanced chemiluminescence (ECL) reagent and detected using an X-ray films for chemiluminescence image (GE healthcare, RPN2106). Scanning/imaging and quantitation of the image was done using silverfast 8 application software and Fiji Image J. Antibodies for Western blotting were list in FIG. 10.
For its phosphorylation, MLKL and its kinase need to be recruited into multiprotein complexes, known as necrosomes (FIG. 4O). Necrosomes are not well conserved among species and vary also with the nature of the stimuli that triggers their formation. […] Considering that phosphorylation of human MLKL at Ser358 (pMLKL), is a hallmark triggering event and marker of necroptosis, the Ser358-phosphorylation and polymerization status of MLKL in cells with LF was determined. […] A prerequisite for the assembly of these RIP kinases into necrosomes was their phosphorylation.
In general terms: Immunoblotting shows a protein as a band on a membrane.

The subject of data set [3] is CHOP. The data set can be described thus: Western blot of CHOP upregulation (UPR, downstream of PERK). The conditions noted are these: cells incubated with A2E. In kind it is cell-based, Human. The protocol:
as §1

The test system of data set [4] is lysosomal membranes. Type of data set: cell-based. An excerpt:
(§2) Next, A2E buildups were imaged using a combination of DIC and fluorescence: A2E appeared as granules with well-defined edges, both within cells or after drying over a coverslip (FIGS. 14D and 14E). Next, the ability of the suspected A2E crystals to damage lysosomal membranes was investigated. A recently developed galectin-3 puncta assay for early detection of lysosomal membrane permeabilization (LMP) was used. Briefly, cytosolic galectin-3 rapidly binds to the glycocalyx in the luminal face of lysosomal membranes as they become leaky, which is easily detectable with anti-galectin high-affinity antibodies. L-Leucyl-L-Leucine methyl ester (LLO) a lysosomotropic peptide that causes LMP was used as positive control of puncta formation (FIG. 14E). […] LMP was confirmed by showing the […] of cathepsin D, as surrogate of lysosomal enzymes. […] Also, very remarkable was the observation that the same unique pattern of protection with arimoclomol and Nec-7 but not Nec-1 was observable for LLO (FIG. 14K), consistent with the idea that necroptosis by A2E is being caused by LMP.

Data set [5] deals with cathepsin D. Type of data set: cell-based.
From the text: as §2

Data set [6] has as its system ARPE19 cells. The data set can be described thus: ATR-induced light-independent cell death. In kind it is cell-based, Human. As to conditions: pre-treatment with 33 μM. The text has this:
Overall, these indicate that necroptosis is a specific readout of ocular lipofuscin toxicity, easily distinguishable from the poisonous effects of ATR.

In data set [7] the test system is IRE1α. Briefly: qPCR of spliced XBP1 (XBP1s) as readout of IRE1α activity in ARPE-19. Type of data set: cell-based, Human. The conditions noted are these: in the dark, qPCR. The text has this: RNA isolation and quantitative PCR. Total RNA was extracted from cultured cells or mouse eye RPE layer using the RNeasy Mini kit (QIAGEN). The total RNA was digested with deoxyribonuclease I to prevent amplification of genomic DNA. The total RNA then was reversed transcribed using High-Capacity cDNA Reverse Transcription Kit (ThermoFisher Scientific, cat.no. 4368814) and analyzed gene expression using SYBR Green Master Mix (ThermoFisher Scientific, cat.no. 4472908) in an Applied Biosystems StepOne real time PCR machine. GAPDH was used as a reference gene. […] After genes were amplified by real time PCR, some of the PCR products were separated by 2.5% agarose gel.
(In qPCR the cycle at which signal appears reflects the starting amount.)

Data set [8] has as its system UPR (PERK and ATF6 branches). Briefly: Western blot of ER-stress markers (p-eIF2a, ATF4, BiP, ATF6) without illumination. In kind it is cell-based, Human. The protocol:
as §1
The causal link between LF accumulation and ER-stress without light assistance was analyzed (FIG. 6A). […] The activation of the IRE1α branch was visualized by qPCR.

“Also recorded” adds a separate entry of the source. Peptide text beside a SMILES is read from it. * marks the point of attachment. Cbz = O=C(OCc1ccccc1)*; CH2F = FC*

For `Cc1cc(=O)oc2c(C=O)c(O)ccc12` [4μ8C], the “protection against light-independent LF (A2E/ATRD) cytotoxicity, RPE survival” value in data set [1] was “did not translate into survival”.
Consider `c1cc(Nc2cc(C3CC3)[nH]n2)nc(Nc2ccc3nc[nH]c3c2)n1` [APY29], for which, in data set [1], the “protection against light-independent LF (A2E/ATRD) cytotoxicity, RPE survival” value was “did not translate into survival”.
Consider `CC1=C(/C=C/C(C)=C/C=C/C(C)=C/C=O)C(C)(C)CCC1` [ATR, all-trans-retinal], for which, in data set [2], the “induction of phosphorylation and polymerization of MLKL” value is reported as “no increase in phosphorylation/polymerization of MLKL”. The “cell death in ARPE19 cells exposed to the substance” value in data set [1] is “Dose dependent cell death”.
Consider `COc1ccc(O)c(C(C)(C)C)c1` [BHA], for which the “protection against light-independent LF (A2E/ATRD) cytotoxicity, RPE survival” value in data set [1] is recorded as “did not rescue”.
With `COc1cc(OC)c(/C=C/S(=O)(=O)Cc2ccc(OC)c(OP(=O)(O)O)c2)c(OC)c1` [Briciclib], in data set [1], the “protection against lethal doses of A2E, viability” value (“protection against lethal doses” below) is on record as “did not confer significant protection”.
On to `CC(C)S(=O)(=O)c1ccc2nccc(Nc3ccc4scnc4c3)c2c1` [GSK'872], for which, in data set [2], the “effect on LF-induced phosphorylation and polymerization of MLKL” value (“effect … of MLKL” for short) is listed as “did not; also recorded: not affected”. Further, the “effect on LF-induced upregulation of CHOP / UPR” value in data set [3] was “neither Nec1 nor GSK'872 effected the UPR”. Moreover, in data set [1], the “protection against light-independent LF (A2E/ATRD) cytotoxicity, RPE survival” value is given as “did not protect; also recorded: not affected”.
Take `N=C(N)N/N=C/c1c(Cl)cccc1Cl` [Guanabenz]: the “protection against lethal doses” value in data set [1] is “did not confer significant protection”.
In the case of `CC(C)c1nc(-c2ccc(NC(=O)Nc3cccc(C(F)(F)F)c3)c3ccccc23)c2c(N)nccn12` [KIRA3], in data set [1], the “protection against light-independent LF (A2E/ATRD) cytotoxicity, RPE survival” value is given as “sufficient to protect against necroptosis by LF”.
As for `COC(=O)[C@H](CC(C)C)NC(=O)[C@@H](N)CC(C)C` [LLO, L-Leucyl-L-Leucine methyl ester], the “lysosomal membrane permeabilization (galectin-3 puncta)” value in data set [4] is recorded as “induced Lysosome membrane permeabilization (LMP)”. The cathepsin-D activity entry in data set [5] is recorded as “caused reduction in cathepsin-D activity”.
`CN1CCN(C(=O)c2ccc(-c3ccc4c(C=O)c(O)ccc4c3)s2)CC1` [MKC-3946]: the “protection against light-independent LF (A2E/ATRD) cytotoxicity, RPE survival” value in data set [1] is “did not translate into survival”.
Turning to `CN1C(=O)C(Cc2c[nH]c3ccccc23)NC1=S` (stereo not shown) [Nec1, Necrostatin-1], the “effect … of MLKL” value in data set [2] was “did not block phosphorylation and polymerization of MLKL; also recorded: not affected”. In addition, the “effect on cell death by ATR” value in data set [6] is on record as “did not block cell death”. In addition, the “effect on LF-induced upregulation of CHOP / UPR” value in data set [3] is “neither Nec1 nor GSK'872 effected the UPR”. Also, in data set [1], the “protection against light-independent LF (A2E/ATRD) cytotoxicity, RPE survival” value is given as “not affected”.
On to `CN1C(=O)NC(Cc2c[nH]c3c(Cl)cccc23)C1=O` (stereo not shown) [Nec1s], for which, in data set [2], the “effect … of MLKL” value is reported as “not affected”. Besides, the “effect on cell death by ATR” value in data set [6] is listed as “did not block cell death”. In data set [1], the “protection against light-independent LF (A2E/ATRD) cytotoxicity, RPE survival” value was “not affected”.
For `Cc1cc(O)c(C(=O)/C=C/c2ccc(O)c([N+](=O)[O-])c2)c(=O)o1` [Nec2], the “effect … of MLKL” value in data set [2] is “not affected”. Further, the “protection against light-independent LF (A2E/ATRD) cytotoxicity, RPE survival” value in data set [1] was “not affected”.
With `COc1ccc(-n2c(SCC#N)nc3sc4c(c3c2=O)CCCC4)cc1` [Nec5], in data set [2], the “effect … of MLKL” value is on record as “not affected”. In data set [1], the “protection against light-independent LF (A2E/ATRD) cytotoxicity, RPE survival” value is reported as “not affected”.
In the case of `O=C(/C=C/c1ccccc1)NC(NC(=S)Nc1ccc(Cl)cc1)C(Cl)(Cl)Cl` (stereo not shown) [SAL003], the “protection against lethal doses” value in data set [1] is listed as “protected against lipofuscin”.
Turning to `O=S(=O)(N=Cc1c(O)ccc2ccccc12)c1cccs1` [STF-0831], in data set [1], the “protection against light-independent LF (A2E/ATRD) cytotoxicity, RPE survival” value is “did not translate into survival”.
Regarding `CCC(=O)N1CCN(c2ccc(-n3c(=O)ccc4cnc5ccc(-c6cnc7ccccc7c6)cc5c43)cc2C(F)(F)F)CC1` [Torin-1], the “protection against lethal doses” value in data set [1] is listed as “did not confer significant protection”.
Turning to `[O-][n+]1cccc(/C(Cl)=N/OC[C@H](O)CN2CCCCC2)c1` [arimoclomol], the “protection against light-independent LF (A2E/ATRD) cytotoxicity, RPE survival” value in data set [1] was “protects against necroptosis by lipofuscin”. For the same compound, in data set [5], the “effect on loss of cathepsin-D activity caused by A2E” value was “prevented”.
On to `CC(C)(C)c1nc(-c2cccc(NS(=O)(=O)c3c(F)cccc3F)c2F)c(-c2ccnc(N)n2)s1` [dabrafenib], for which the “protection against light-independent LF (A2E/ATRD) cytotoxicity, RPE survival” value in data set [1] was “increased RPE survival in a dose dependent manner”.
`Cc1cc(Nc2cc(N)ncn2)c(=O)n2c1C(=O)NC21CCCCC1` [eFT508]: the “protection against lethal doses” value in data set [1] is on record as “did not confer significant protection”.
Take `COc1nccnc1NS(=O)(=O)c1ccc(NC(=O)/C=C/c2ccc([N+](=O)[O-])s2)cc1` [necrosulfonamide]: the “protection against light-independent LF (A2E/ATRD) cytotoxicity, RPE survival” value in data set [1] is on record as “increased RPE survival in a dose dependent manner”.
Take `COC(=O)C[C@H](NC(=O)[C@H](C)NC(=O)[C@@H](NC(=O)OCc1ccccc1)C(C)C)C(=O)CF` [z-VAD(OMe)-FMK] (Cbz-Val-Ala-Asp(OMe)-CH2F): the “protection against light-independent LF (A2E/ATRD) cytotoxicity, RPE survival” value in data set [1] was “provided no protection”.
As for all-trans-retinal dimers [ATRD], in data set [2], the “induction of phosphorylation and polymerization of MLKL” value is “dose-dependent phosphorylation and polymerization of MLKL”. Further, in data set [1], the “cell death in ARPE19 cells exposed to the substance” value was “Dose dependent cell death”. In data set [7], the “induction of XBP1s” value was “dose and time-dependent inductions of XBP1s”. For the same compound, the “induction of ATF4 and BiP” value in data set [8] (without light) was “highest induction of ATF4 and BiP”.
Regarding methyl beta-cyclodextrins [MβCD], the “protection against A2E cytotoxicity by neutralization of detergent activity” value in data set [1] (10 μM methyl-βCD, 20 μM A2E) is “did not protect against A2E”.
Regarding tunicamycin, in data set [8] (6 hrs treatment, 20 μM A2E), the “cleavage of ATF6” value is listed as “significant cleavage”.
